Entries after “also recorded” stand apart in the source; their conditions may differ.

Assay [1] concerns the target T1, P2Y11 receptor (Homo sapiens, UniProt Q96G91).
T1 sequence (Q96G91 1-374): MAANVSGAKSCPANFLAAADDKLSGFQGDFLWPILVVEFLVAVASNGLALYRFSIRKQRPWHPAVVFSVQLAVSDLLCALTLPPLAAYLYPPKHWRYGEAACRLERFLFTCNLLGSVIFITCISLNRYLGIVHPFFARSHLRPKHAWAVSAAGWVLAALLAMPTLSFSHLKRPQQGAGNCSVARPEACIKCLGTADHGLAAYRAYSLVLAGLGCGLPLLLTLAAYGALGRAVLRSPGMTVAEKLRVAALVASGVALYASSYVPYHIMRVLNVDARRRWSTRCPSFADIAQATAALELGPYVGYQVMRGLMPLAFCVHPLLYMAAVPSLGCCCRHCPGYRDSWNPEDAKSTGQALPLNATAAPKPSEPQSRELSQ
To be noted: reported in reference (29), different cell line; cited from earlier work.

The target in assay [2] is T1, P2Y11 receptor. As to the kind of experiment: Multiplex DAG2 and R-GECO1 sensors with P2Y11 receptor in HEK 293 cells. Type of assay: cell-based. On the set-up: expressed in transfected cells; host or cells: HEK 293. Conditions: HEK cells expressing human P2Y11 receptor. An excerpt:
To explore whether multiplex sensors could be used to detect this distinct signaling pattern, we expressed the human P2Y11 receptor with combinations of the Downward DAG2, or Upward DAG2, and R-GECO1 sensors. […] (FIG. 8).

Assay [3] has as its system intracellular Ca2+. As to the kind of experiment: Independence test: ionomycin raises intracellular Ca2+ in cells expressing Ca2+, DAG or PIP2 sensors. Type of assay: cell-based. An excerpt:
(§1) To test for the independence of the signals being detected by these sensors, we increased intracellular Ca2+ by applying ionomycin.

Assay [4] has as its system DAG. Kind of assay: DAG sensor fluorescence change on carbachol stimulation of co-expressed M1 receptor in HEK 293 cells (time-lapse imaging). The assay is classed as cell-based, human. An excerpt: These changes were easily detected in time-lapse imaging and occurred in all transfected cells with remarkably little cell to cell variability. […] The signals then returned to baseline quite slowly (t-170 seconds, FIG. 3C).

Assay [5] relates to DAG sensors. Kind of assay: Effect of DMSO on the DAG assay. Type of assay: cell-based. How it is done:
Many compound libraries are carried by DMSO, a vehicle that can cause artifacts in live cell assays. […] At moderate final concentrations of 0.1 to 1%, the DMSO produced no effect, while at higher concentrations artifactual, DMSO triggered changes in fluorescence did occur. The effect of DMSO on the DAG sensors was negligible at final concentrations of 0.1 to 1%, but detectable at 2% or greater.

The subject of assay [6] is DAG sensors. As to the kind of experiment: Direct activation of DAG sensors in cells by phorbol ester PDBu. The assay is classed as cell-based.
Description: In transient expression it is possible to produce high concentrations of the protein-based sensor than the analyte itself [Falkenburger et al].
as §1

In assay [7] the test system is PIP2 and DAG. As to the kind of experiment: Co-expressed PIP2r and DAG sensors, M1 receptor activation (PLC substrate and product). To be noted: PIP2r co-expressed with DAG sensor, FIG. 7A. Type of assay: cell-based. An excerpt: Stimulation of phospholipase C cleaves PIP2 and produces DAG. Co-expression of the Upward DAG2 or Downward DAG2 sensor with the PIP2r sensor provides a new view of both the substrate and product of phopholipase C (FIG. 7). To our knowledge, this is the first time that genetically encoded biosensors have been used to simultaneously measure substrate and product. M1 receptor activation produced a remarkable change in the intensity and distribution of both sensors. […] The onset of the response of the Upward and Downward DAG2 sensors, as well as PIP2r, is kinetically quite similar. However the return to baseline is considerably slower for the Downward DAG2 and PIP2r sensors (FIG. 7B).

Assay [8] relates to PIP2. As to the kind of experiment: PIP2 sensor response to M1 receptor activation. Type of assay: cell-based. To be noted: FIGS. 6A and B. An excerpt:
Phospholipase C hydrolyses PIP2 to produce both DAG and IP3. To independently check the fidelity and kinetics of the DAG sensors, we created a red fluorescent PIP2 sensor by fusing the pleckstrin homology (PH) domain of PLCδ to two different components of the recently described dimerization-dependent red fluorescent proteins (26). Previous work has shown that the translocation of the PLCδ PH domain can be used to measure PIP2 turnover (27), and if the PH domains carry FRET pairs of fluorescent proteins a small change in FRET occurs when PLC is activated (28). […] Because this sensor relies on the fluorescence of one protein, rather than a FRET pair, it could be multiplexed with the green fluorescent DAG sensors for simultaneous measurement of both PIP2 and DAG in living cells. The amino acid sequences of this pair of constructs forming a novel PIP2 sensor are shown as SEQ ID NO:70 and SEQ ID NO:71, and the nucleotide sequences encoding them are shown as SEQ ID NO:72 and SEQ ID NO:73.

Setting [9] is: carbachol stimulation of the M1 receptor.

For `Nc1ncnc2c1ncn2[C@@H]1O[C@H](COP(=O)(O)OP(=O)(O)OP(=O)(O)O)[C@@H](O)[C@H]1O` [ATP], in assay [1], the “signaling at the P2Y11 receptor as reported” value was “produces inositol phosphate turnover and transient Ca2+ signaling”. In assay [2], the “Ca2+ response (R-GECO1)” value is “triggered a Ca2+ response; also recorded: transient increase in Ca2+” and the “PLC pathway signaling (Upward or Downward DAG2 sensors)” value is reported as “triggers signaling via the phospholipase C pathway; also recorded: activating the PLC pathway”.
In the case of `O=c1ccn([C@@H]2O[C@H](COP(=O)(O)OP(=O)(O)OP(=O)(O)O)[C@@H](O)[C@H]2O)c(=O)[nH]1` [UTP], the “signaling at the P2Y11 receptor as reported” value in assay [1] is recorded as “only triggers a Ca2+ response”. Besides, in assay [2], the “Ca2+ response (R-GECO1)” value was “triggered a Ca2+ response; also recorded: transient increase in Ca2+” and the “PLC pathway signaling (Upward or Downward DAG2 sensors)” value is recorded as “causing a Ca2+ transient in a very different way; also recorded: producing a Ca2+ transient through a different pathway”.
With `C[C@H](CCC(=O)O)C[C@H](C)C[C@H](C)C(=O)/C=C(\O)[C@H](C)C[C@H](C)C/C=C/[C@@H](C)[C@@H](O)[C@@H](C)[C@@H](O)C[C@@H]1CC[C@@](C)([C@H]2CC[C@@](C)([C@@H](C)O)O2)O1` [ionomycin], the “effect of raising intracellular Ca2+ on DAG and PIP2 levels” value in assay [3] (ionomycin added before PdBU or M1 receptor activation, FIGS. 6C and D) is “no apparent effect on the DAG and PIP2 levels”. Moreover, in assay [3] (ionomycin applied, FIG. 4C), the “R-GECO (Ca2+ sensor) response” value is “produces a change in R-GECO; also recorded: robust R-GECO1 response” and the “change in DAG sensor” value was “not Downward DAG; also recorded: no detectable change in the DAG sensor”.
In the case of “Downward DAG: DAG sensor: cpEGFP at K152 of PKC delta truncated at L122; fluorescence decreases upon binding to DAG”, the “loss (decrease) in fluorescence” value in assay [4] (setting [9]) is 40%. In addition, the “time over which the fluorescence loss occurs” value in assay [4] (mean of 4 cells) was 15 s.
As for `C[S+](C)[O-]` [DMSO], the “effect of DMSO on the DAG sensors” value is given as “detectable” in assay [5] (2% or greater) and “negligible; also recorded: no effect” in assay [5] (final concentrations of 0.1 to 1%).
On to `CCCC(=O)O[C@@H]1[C@@H](C)[C@@]2(O)[C@@H](C=C(CO)C[C@]3(O)C(=O)C(C)=C[C@@H]23)[C@@H]2C(C)(C)[C@]12OC(=O)CCC` [PDBu], for which the “additional change in sensor fluorescence on PDBu applied after carbachol” value in assay [6] (cells first stimulated with carbachol, then PDBu) is reported as “additional increase in fluorescence; also recorded: additional doubling of the change in intensity”. For the same molecule, the “activation of DAG sensor by PDBu added after ionomycin” value in assay [6] (subsequent addition after ionomycin, FIG. 4C) was “activates Downward DAG; also recorded: subsequently activated”.
With “Upward DAG: DAG sensor: cpEGFP at N158 of PKC delta truncated at L122; fluorescence increases upon binding to DAG”, the “change in sensor fluorescence on M1 receptor activation” value in assay [7] is “green fluorescence increases”. The fluorescence increase in assay [4] (setting [9]) worked out at 45%.

B1: PIP2 sensor: red fluorescent PIP2 sensor: PH domain of PLCδ fused to each member of the ddRFP pair (protein)
chain 1: MVSKSEEVIKEFMRFKVRLEGSMNGHEFEIEGEGEGRPYEGTQTAKLKVTKGGPLPFAWDILSPQIMYGSKAYVKHPADVPDYMKLSFPEGFKWERVMHFEDGGLVTVTQDTSLQDGTLIYKVKMRGTNFPPDGPVMQKKTLGWDYATERLYPEDGVLKGELLGRLKLKDGGLNLVEFKTIYMAKKPVQLPGYYFVDTKLGITSHNEDYTIVEQYERSEGRHHLGMDELYKRSRAQASNSAVDGTAGPGSMDSGRDFLTLHGLQDDEDLQALLKGSQLLKVKSSSWRRERFYKLQEDCKTIWQESRKVMRTPESQLFSIEDIQEVRMGHRTEGLEKFARDVPEDRCFSIVFKDQRNTLDLIAPSPADAQHWVLGLHKIIHHSGSMDQRQKLQHWIHSCLRKADKNKDNKMSFKELQNFLKELNIQ
chain 2: MVSKGEETIKEFMRFKVRMEGSMNGHEFEIEGEGEGRPYEGTQTAKLKVTKGGPLPFAWDILSPQFMYGSEAYVRHPADIPDYKKLPFPEGFKWERVMNFEDGGLVTVTQDSSLQDGTLICKVKMRGTNFPPDGPVMQKKTMGWEASTEMLYPEDGVLKGHSYQALKLKDGGHYLVEFETIYMAKKPVQLPGDYCVDTKLDITSHNEDYTIVEQYGRSEGRHRLGMDERYKRSRAQASNSAVDGTAGPGSMDSGRDFLTLHGLQDDEDLQALLKGSQLLKVKSSSWRRERFYKLQEDCKTIWQESRKVMRTPESQLFSIEDIQEVRMGHRTEGLEKFARDVPEDRCFSIVFKDQRNTLDLIAPSPADAQHWVLGLHKIIHHSGSMDQRQKLQHWIHSCLRKADKNKDNKMSFKELQNFLKELNIQ
modifications: Synthetic sequence, a.a. sequence of PIP2 sensor fragment [PIP2-A1]; Synthetic sequence, a.a. sequence of PIP2 sensor fragment [PIP2-B1]
notes: red fluorescent PIP2 sensor: PH domain of PLCδ fused to each member of the ddRFP pair
In the case of B1, the “change in sensor fluorescence on M1 receptor activation” value in assay [7] is reported as “red fluorescence decreases”. In addition, the “red fluorescent signal at the membrane with M1 receptor activation” value in assay [8] was “rapidly disappeared”.

Source of the values: patent US9547017B2, “Genetically encoded fluorescent sensors for detecting intracellular signalling through diacylglycerol pathways” (MONTANA MOLECULAR LLC, priority 2012, dated 2017).
